From patent US8729023B2 (priority 2002, dated 2014) come the findings set out here.

Series [1] relates to breast tissue of cancer-free and breast tumor-bearing rats. The series is described as follows: Effect of ET-1 on perfusion, CMBC and velocity of blood cells in breast tissue, laser Doppler flowmetry. In kind it is in vivo, rat. How it is done: MNU and saline treatments were performed as i.p. injections three months prior to the studies. Rats were palpated regularly starting four weeks after the treatments. Once tumors reached about 4-8 mm in diameter, experiments were initiated.
Rats were initially divided into two groups, each receiving one of the following treatments: • Group I: ET-1 (50 ng/kg/min) infusion for 30 minutes in rats treated with saline (normal rats) (N=6); and • Group II: ET-1 (50 ng/kg/min) infusion for 30 minutes in treated with MNU (50 mg/kg, i.p.; tumor rats) (N=6).
Systemic hemodynamic and regional circulation parameters were determined at baseline, 30, 60, and 120 minutes after starting ET-1 (50 ng/kg/min) infusion.
Blood perfusion to the mammary gland of the rats was measured using laser Doppler flowmetry. See Song et al., Int J Radiat Oncol Biol Phys, 18:903 (1990); Song et al., Int J Radiat Oncol Biol Phys, 17:1041 (1989). The animals were shaved around the nipples. The skin surrounding the mammary glands was dissected out as a lambeau about 6 cm wide and about 4 cm long. A standard model fiber optic probe was applied to the surface of the lambeau, and secured to the tissue by double stick tape. The lambeau was placed in a metal holder and taped down to prevent movement, then connected to a Periflux PF2b 4000 Laser Doppler Flowmetry (Perimed K B, Stockholm, Sweden). The time constant was set at 1.5 seconds and the bandwidth was set at 4 KHz. Data were analyzed using analysis of variance followed by Duncan's test. A level of p<0.05 was considered significant.

Series [2] can be described thus: Effect of ET-1 infusion on systemic hemodynamics, radioactive microsphere technique. Format: in vivo, rat. Conditions: ET-1 50 ng/kg/min infusion for 30 minutes.
Series [3] has as its system breast tissue of cancer-free and breast tumor-bearing rats. As to the kind of experiment: Effect of ET-1 infusion on blood flow and regional vascular resistance in breast tissue, microspheres. In kind it is in vivo, rat.
Series [4] has as its system JHU-4 (MAT-LyLu) prostate tumor. Conditions: rat, in vivo.
[5] abbreviates: tumor-bearing rats, at 30 minutes.
Where [6] appears, read: tumor-bearing rats, at 60 minutes.
Setting [7] is: tumor-bearing rats, at 120 minutes.
[8] abbreviates: normal saline-treated rats, ET-1 50 ng/kg/min infusion for 30 minutes.

For `CC[C@H](C)[C@H](NC(=O)[C@H](CC(=O)O)NC(=O)[C@H](CC(C)C)NC(=O)[C@H](Cc1c[nH]cn1)NC(=O)[C@@H]1CSSC[C@H](N)C(=O)N[C@@H](CO)C(=O)N[C@H]2CSSC[C@H](NC(=O)[C@H](CCC(=O)O)NC(=O)[C@H](CCCCN)NC(=O)[C@H](CC(=O)O)NC(=O)[C@H](CCSC)NC(=O)[C@H](CC(C)C)NC(=O)[C@H](CO)NC(=O)[C@H](CO)NC2=O)C(=O)N[C@@H](C(C)C)C(=O)N[C@@H](Cc2ccc(O)cc2)C(=O)N[C@@H](Cc2ccccc2)C(=O)N1)C(=O)N[C@H](C(=O)N[C@@H](Cc1c[nH]c2ccccc12)C(=O)O)[C@@H](C)CC` [ET-1], in series [1] (120 minutes after ET-1 administration), the “velocity of RBC in tumor-bearing rats” value is recorded as “returned to baseline”. Further, in series [1] (at 60 and 120 minutes following ET-1 administration), the “perfusion in the breast tissue of tumor-bearing rats” value is listed as “returned to baseline”. Further, the “perfusion in the breast tissue of tumor-bearing rats, increase compared to normal rats” value in series [1] (at 30 minutes following ET-1 administration) is given as 176%. Also, the “CMBC in tumor-bearing rats, increase as compared to normal rats” value in series [1] (at 60 minutes post ET-1 administration) is given as 54%. Besides, the “CMBC in tumor-bearing rats” value in series [1] (at 120 minutes after ET-1 administration) was “returned to baseline”. Further, in series [1] (normal rats, after ET-1 50 ng/kg/min infusion), the “blood perfusion in the breast tissue” value is recorded as “did not significantly change”. For the same compound, in series [1] (tumor-bearing rats, at 30 minutes post ET-1 administration), the “velocity of RBC, increase compared to normal rats” value turned out to be 252%. For the same compound, the “change in HR” value in series [2] (normal rats) is recorded as “No significant change”; in series [2] (tumor-bearing rats) it was “No change”. Further, the “increase in MAP” value in series [2] (normal rats, at 30 minutes) worked out at 14.5%; in series [2] (tumor-bearing (MNU treated) rats, at 30 minutes), 19.1%; in series [2] (tumor-bearing (MNU treated) rats, at 60 minutes), 15.3%. For the same compound, the CO decrease was found to be 22.9% in series [2] (normal rats, at 60 minutes); 42.5% in series [2] (normal rats, at 120 minutes); 29.4% in series [2] (setting [5]); 16.7% in series [2] (setting [6]); 36.1% in series [2] (setting [7]). The SV decrease in series [2] (normal rats, at 60 minutes) is recorded as 20.9%; in series [2] (normal rats, at 120 minutes), 36%; in series [2] (setting [5]) it was 31.1%; in series [2] (setting [6]), 17.9%; in series [2] (setting [7]) it was 32.1%. Also, the TPR increase in series [2] (normal rats, at 120 minutes) is reported as 49.2%; in series [2] (setting [5]), 73.9%; in series [2] (setting [6]), 39.7%; in series [2] (setting [7]), 71.4%. In series [2] (normal rats, at 120 minutes), the “decrease in MAP” value came to 17.8%. The “vascular resistance in tumor-bearing rats, difference compared to normal rats” value in series [3] (at 60 minutes following ET-1 administration) is 147%. The “increase in blood flow to the breast tissue of tumor-bearing rats as compared to normal rats” value in series [3] (at 60 minutes following administration of ET-1 50 ng/kg/min) worked out at 153%. Also, in series [3] (setting [8]), the “change in blood flow to the breast tissue” value is given as “No significant change”. For the same compound, the “change in vascular resistance in breast tissue” value in series [3] (setting [8]) is reported as “No significant change”.

For the compound `COc1cccc2c1C(=O)c1c(O)c3c(c(O)c1C2=O)C[C@@](O)(C(=O)CO)C[C@@H]3O[C@H]1C[C@H](N)[C@H](O)[C@H](C)O1` [saline+DOX, doxorubicin], in series [4], the “maximum decrease in body weight” value is reported as −8.46±3.88.
